These results are taken from patent US12655125B2 (SIRONAX LTD., priority 2020, dated 2026).

In the first assay the test system is HT-29 cells. Kind of assay: HT29 Cells 0FBS Assay In Vitro (TNF-α/SMAC mimetic/zVAD-FMK induced necroptosis, CellTiter-Glo cell viability). As to conditions: Homo sapiens, HT-29, 20 h, read-out: Cell activity (EC50) of Compounds 117-281. In kind it is cell-based. The gist of the method:
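Viability was measured by ATP luminescence (CellTiter-Glo) after 20 h at 37° C of compound exposure in 10-point, 1:3 dilutions. Necroptosis in FBS-free HT-29 cultures was driven by a TNF-α (10 ng/ml), SMAC mimetic (6 μM) and zVAD-FMK (10 μM) cocktail. EC50 values are geometric means from duplicate curves.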
As to `Cc1nn(CCO)c(C)c1-c1cc(OC2CN(C(=O)N3N=CC[C@H]3c3cc(F)cc(F)c3)C2)c(F)cn1` [compound 117, (S)-(5-(3,5-difluorophenyl)-4,5-dihydro-1H-pyrazol-1-yl)(3-((5-fluoro-2-(1-(2-hydroxyethyl)-3,5-dimethyl-1H-pyrazol-4-yl)pyridin-4-yl)oxy)azetidin-1-yl)methanone], the EC50 was 0.1 to 100 nM.

The assay is the same for the next values; noted with them: Homo sapiens; HT-29 cells, FBS free medium, TNF-α (10 ng/ml), SMAC mimetic (6 uM), zVAD-FMK (10 μM), 20 hours; geometric mean EC50; read-out: Cell activity (EC50) of Compounds 1-116.
Consider `CNC(=O)Cn1nc(C)c(-c2ncc(F)c(OC3CN(C(=O)N4N=CC[C@H]4c4cc(F)cc(F)c4)C3)n2)c1C` [compound 98, (S)-2-(4-(4-((1-(5-(3,5-difluorophenyl)-4,5-dihydro-1H-pyrazole-1-carbonyl)azetidin-3-yl)oxy)-5-fluoropyrimidin-2-yl)-3,5-dimethyl-1H-pyrazol-1-yl)-N-methylacetamide], for which the EC50 was in the range of 0.1 to 100 nM.
As to `Cc1nn(CC(N)=O)c(C)c1-c1ncc(F)c(OC2CN(C(=O)N3N=CC[C@H]3c3cc(F)cc(F)c3)C2)n1` [compound 99, (S)-2-(4-(4-((1-(5-(3,5-difluorophenyl)-4,5-dihydro-1H-pyrazole-1-carbonyl)azetidin-3-yl)oxy)-5-fluoropyrimidin-2-yl)-3,5-dimethyl-1H-pyrazol-1-yl)acetamide], the EC50 was in the range of 0.1 to 100 nM.
Still for that read-out and setting: under `Cc1nn(CC(=O)N(C)C)c(C)c1-c1ncc(F)c(OC2CN(C(=O)N3N=CC[C@H]3c3cc(F)cc(F)c3)C2)n1` [compound 100, (S)-2-(4-(4-((1-(5-(3,5-difluorophenyl)-4,5-dihydro-1H-pyrazole-1-carbonyl)azetidin-3-yl)oxy)-5-fluoropyrimidin-2-yl)-3,5-dimethyl-1H-pyrazol-1-yl)-N,N-dimethylacetamide] stands 0.1 to 100 nM; under `Cc1c(N)nn(C)c1-c1cc(OC2CN(C(=O)N3N=CC[C@H]3c3cc(F)cc(F)c3)C2)c(F)cn1` [compound 101, (S)-(3-((2-(3-amino-1,4-dimethyl-11H-pyrazol-5-yl)-5-fluoropyridin-4-yl)oxy)azetidin-1-yl)(5-(3,5-difluorophenyl)-4,5-dihydro-1H-pyrazol-1-yl)methanone], 0.1 to 100 nM.
As to `Cc1cccn1-c1ncc(F)c(OC2CN(C(=O)N3N=CC[C@H]3c3cc(F)cc(F)c3)C2)n1` [compound 102, (S)-(5-(3,5-difluorophenyl)-4,5-dihydro-1H-pyrazol-1-yl)(3-((5-fluoro-2-(2-methyl-1H-pyrrol-1-yl)pyrimidin-4-yl)oxy)azetidin-1-yl)methanone], the EC50 lay within 0.1 to 100 nM.
Still for that read-out and setting: under `Cc1nc(C)n(-c2ncc(F)c(OC3CN(C(=O)N4N=CC[C@H]4c4cc(F)cc(F)c4)C3)n2)n1` [compound 103, (S)-(5-(3,5-difluorophenyl)-4,5-dihydro-1H-pyrazol-1-yl)(3-((2-(3,5-dimethyl-1H-1,2,4-triazol-1-yl)-5-fluoropyrimidin-4-yl)oxy)azetidin-1-yl)methanone] stands 0.1 to 100 nM; under `Cc1nc(C)n(-c2cc(OC3CN(C(=O)N4N=CC[C@H]4c4cc(F)cc(F)c4)C3)c(F)cn2)n1` [compound 104, (S)-(5-(3,5-difluorophenyl)-4,5-dihydro-1H-pyrazol-1-yl)(3-((2-(3,5-dimethyl-1H-1,2,4-triazol-1-yl)-5-fluoropyridin-4-yl)oxy)azetidin-1-yl)methanone], 0.1 to 100 nM.
Still for that read-out and setting: under `Cc1nccn1-c1ncc(F)c(OC2CN(C(=O)N3N=CC[C@H]3c3cc(F)cc(F)c3)C2)n1` [compound 105, (S)-(5-(3,5-difluorophenyl)-4,5-dihydro-1H-pyrazol-1-yl)(3-((5-fluoro-2-(2-methyl-1H-imidazol-1-yl)pyrimidin-4-yl)oxy)azetidin-1-yl)methanone] stands 0.1 to 100 nM; under `N#Cc1cccn1-c1ncc(F)c(OC2CN(C(=O)N3N=CC[C@H]3c3cc(F)cc(F)c3)C2)n1` [compound 106, (S)-1-(4-((1-(5-(3,5-difluorophenyl)-4,5-dihydro-1H-pyrazole-1-carbonyl)azetidin-3-yl)oxy)-5-fluoropyrimidin-2-yl)-1H-pyrrole-2-carbonitrile], 0.1 to 100 nM; under `NC(=O)c1cccn1-c1ncc(F)c(OC2CN(C(=O)N3N=CC[C@H]3c3cc(F)cc(F)c3)C2)n1` [compound 107, (S)-1-(4-((1-(5-(3,5-difluorophenyl)-4,5-dihydro-1H-pyrazole-1-carbonyl)azetidin-3-yl)oxy)-5-fluoropyrimidin-2-yl)-1H-pyrrole-2-carboxamide], 0.1 to 100 nM.
For `Cc1nn(-c2cc(OC3CN(C(=O)N4N=CC[C@H]4c4cc(F)cc(F)c4)C3)c(F)cn2)c(C)c1[N+](=O)[O-]` [compound 108, (S)-(5-(3,5-difluorophenyl)-4,5-dihydro-1H-pyrazol-1-yl)(3-((2-(3,5-dimethyl-4-nitro-1H-pyrazol-1-yl)-5-fluoropyridin-4-yl)oxy)azetidin-1-yl)methanone], the EC50 is 0.1 to 100 nM.
For `Cc1nn(-c2cc(OC3CN(C(=O)N4N=CC[C@H]4c4cc(F)cc(F)c4)C3)c(F)cn2)c(C)c1N` [compound 109, (S)-(3-((2-(4-amino-3,5-dimethyl-11H-pyrazol-1-yl)-5-fluoropyridin-4-yl)oxy)azetidin-1-yl)(5-(3,5-difluorophenyl)-4,5-dihydro-1H-pyrazol-1-yl)methanone], the concentration for a half-maximal effect (EC50) was 0.1 to 100 nM.
On to `Cc1nn(-c2cc(OC3CN(C(=O)N4N=CC[C@H]4c4cc(F)cc(F)c4)C3)c(F)cn2)c(C)c1C(N)=O` [compound 110, (S)-1-(4-((1-(5-(3,5-difluorophenyl)-4,5-dihydro-1H-pyrazole-1-carbonyl)azetidin-3-yl)oxy)-5-fluoropyridin-2-yl)-3,5-dimethyl-1H-pyrazole-4-carboxamide], for which the EC50 was in the range of 0.1 to 100 nM.
Still for that read-out and setting: the same measure for `Cn1ncc(C#N)c1-c1ccc(F)c(OC2CN(C(=O)N3N=CCC3c3cc(F)cc(F)c3)C2)n1` (centres unmarked) [compound 111, 5-(6-((1-(5-(3,5-difluorophenyl)-4,5-dihydro-1H-pyrazole-1-carbonyl)azetidin-3-yl)oxy)-5-fluoropyridin-2-yl)-1-methyl-11H-pyrazole-4-carbonitrile]: 0.1 to 100 nM; for `Cc1cnn(C)c1-c1ccc(F)c(OC2CN(C(=O)N3N=CC[C@H]3c3cc(F)cc(F)c3)C2)c1` [compound 112, (S)-(5-(3,5-difluorophenyl)-4,5-dihydro-1H-pyrazol-1-yl)(3-(5-(1,4-dimethyl-1H-pyrazol-5-yl)-2-fluorophenoxy)azetidin-1-yl)methanone]: 0.1 to 100 nM; for `Cc1n[nH]c(C)c1-c1ccc(F)c(OC2CN(C(=O)N3N=CC[C@H]3c3cc(F)cc(F)c3)C2)c1` [compound 113, (S)-(5-(3,5-difluorophenyl)-4,5-dihydro-1H-pyrazol-1-yl)(3-(5-(3,5-dimethyl-1H-pyrazol-4-yl)-2-fluorophenoxy)azetidin-1-yl)methanone]: 0.1 to 100 nM.
The same measure, in the same setting: the same measure for `Cn1ncc(C#N)c1-c1ccc(F)c(OC2CN(C(=O)N3N=CCC3c3cc(F)cc(F)c3)C2)c1` (centres unmarked) [compound 114]: 0.1 to 100 nM.
On to `Cn1ncc(C(N)=O)c1-c1ccc(F)c(OC2CN(C(=O)N3N=CCC3c3cc(F)cc(F)c3)C2)c1` (centres unmarked) [compound 115], for which the EC50 was 0.1 to 100 nM.
`Cc1nc(C)n(-c2ccc(F)c(OC3CN(C(=O)N4N=CCC4c4cc(F)cc(F)c4)C3)c2)n1` (centres unmarked) [compound 116]: the EC50 was in the range of 0.1 to 100 nM.

The same assay, now with this note: Homo sapiens; HT-29 cells, FBS free medium, TNF-α (10 ng/ml), SMAC mimetic (6 uM), zVAD-FMK (10 μM), 20 hours; geometric mean EC50; read-out: Cell activity (EC50) of Compounds 117-281.
`COC(=O)Cn1nc(C)c(-c2cc(OC3CN(C(=O)N4N=CC[C@H]4c4cc(F)cc(F)c4)C3)c(F)cn2)c1C` [compound 118, methyl (S)-2-(4-(4-((1-(5-(3,5-difluorophenyl)-4,5-dihydro-1H-pyrazole-1-carbonyl)azetidin-3-yl)oxy)-5-fluoropyridin-2-yl)-3,5-dimethyl-1H-pyrazol-1-yl)acetate]: the EC50 was in the range of 1000 to 10000 nM.
Same read-out and setting: under `CN(C)CCNc1cnn(C)c1-c1cc(OC2CN(C(=O)N3N=CC[C@H]3c3cc(F)cc(F)c3)C2)c(F)cn1` [compound 119, (S)-(5-(3,5-difluorophenyl)-4,5-dihydro-1H-pyrazol-1-yl)(3-((2-(4-((2-(dimethylamino)ethyl)amino)-1-methyl-1H-pyrazol-5-yl)-5-fluoropyridin-4-yl)oxy)azetidin-1-yl)methanone] stands 100 to 1000 nM; under `Cn1ncc(NCCN2CCOCC2)c1-c1cc(OC2CN(C(=O)N3N=CC[C@H]3c3cc(F)cc(F)c3)C2)c(F)cn1` [compound 120, (S)-(5-(3,5-difluorophenyl)-4,5-dihydro-1H-pyrazol-1-yl)(3-((5-fluoro-2-(1-methyl-4-((2-morpholinoethyl)amino)-1H-pyrazol-5-yl)pyridin-4-yl)oxy)azetidin-1-yl)methanone], 0.1 to 100 nM; under `COCC(=O)Nc1cnn(C)c1-c1cc(OC2CN(C(=O)N3N=CC[C@H]3c3cc(F)cc(F)c3)C2)c(F)cn1` [compound 121, (S)—N-(5-(4-((1-(5-(3,5-difluorophenyl)-4,5-dihydro-1H-pyrazole-1-carbonyl)azetidin-3-yl)oxy)-5-fluoropyridin-2-yl)-1-methyl-1H-pyrazol-4-yl)-2-methoxyacetamide], 0.1 to 100 nM.
With `CN(C)CC(=O)Nc1cnn(C)c1-c1cc(OC2CN(C(=O)N3N=CC[C@H]3c3cc(F)cc(F)c3)C2)c(F)cn1` [compound 122, (S)—N-(5-(4-((1-(5-(3,5-difluorophenyl)-4,5-dihydro-1H-pyrazole-1-carbonyl)azetidin-3-yl)oxy)-5-fluoropyridin-2-yl)-1-methyl-1H-pyrazol-4-yl)-2-(dimethylamino)acetamide], the EC50 was 0.1 to 100 nM.
Regarding `CN1CCN(CC(=O)Nc2cnn(C)c2-c2cc(OC3CN(C(=O)N4N=CC[C@H]4c4cc(F)cc(F)c4)C3)c(F)cn2)CC1` [compound 123, (S)—N-(5-(4-((1-(5-(3,5-difluorophenyl)-4,5-dihydro-1H-pyrazole-1-carbonyl)azetidin-3-yl)oxy)-5-fluoropyridin-2-yl)-1-methyl-1H-pyrazol-4-yl)-2-(4-methylpiperazin-1-yl)acetamide], the EC50 was in the range of 100 to 1000 nM.
